Experiments:
Test in all cases: Disc diffusion assay (DDA)
Type in all cases: cell-based, Propionibacterium acnes
[1] = system: P. acnes PRP-026; settings: resistance MLS, 200 μg per disc
Protocol: (§1) The Propionibacterium spp organisms were cultured and maintained on Wilkins-Chalgren Anaerobe Medium (agar and broth) at pH 6.0; cultures were incubated anaerobically at 37° C. for 72 hours.
(§2) A sterile paper disc was impregnated with a sample of the test compound and a minimum of 30 minutes allowed for the solvents to evaporate as far as possible. The disc was then placed on an agar plate onto which the test micro-organism had been inoculated. The plate was then incubated under the conditions described above, following which it was examined visually for signs of bacterial growth. If the test compound had antimicrobial activity, a circular zone of no growth would be obtained around the disc. The diameter of this zone of “inhibition” was measured using a ProtoCOL™ automated zone sizer (Synbiosis, Cambridge, UK). In general, a greater diameter and/or area of the zone of inhibition indicates a greater antimicrobial activity in the relevant test compound, although other factors such as test compound mobility through the agar gel may also influence the result.
(§3) The area of the zone of inhibition was calculated from the measured zone diameter (D) using the formula π(D/2)^2.
(§4) For the DDA assays, 200 μg of TBHQ was loaded onto each disc. The solvent used for the TBHQ was ethanol.

[2] = system: P. acnes PRP-046; settings: resistance None, 200 μg per disc
Protocol: as §1, §2, §3, §4

[3] = system: P. acnes PRP-008; settings: resistance Clin, 200 μg per disc
Protocol: as §1, §2, §3, §4

[4] = system: P. acnes PRP-023; settings: resistance MLSK, 200 μg per disc
Protocol: as §1, §2, §3, §4

Question: Which results are given for `CC(C)(C)c1cc(O)ccc1O` [TBHQ, 2-t-butyl hydroquinone]?
Answer: DDA [1]: 8.18 mm; DDA [2]: 17.46 mm; DDA [3]: 14.47 mm; DDA [4]: 23.90 mm
